Results: US12295970B2, “Imidazoquinoline compounds and prodrugs thereof” (UNIVERSITY OF KANSAS, priority 2019, dated 2025)

Columns and labels:
canine PBMCs = test: In vitro cytokine secretion assay in canine PBMCs (Example 3); type: cell-based; settings: 15 hours, ELISA
Source text: As a TLR7/8 agonist, R848 binds to endosomal TLR7 and 8 receptors located on antigen presenting cells (APCs). The activation of APCs produces pro-inflammatory cytokines including TNF-α, type I IFN and IL-12. These cytokines, together with stimulated APCs that take up tumor antigens, enhance the activation of anti-tumor Th-1 immune responses that involve both CD4^+ T helper cells and CD8^+ cytotoxic T cells.^16 To evaluate the Th-1 associated cytokine production in vitro, isolated canine PBMCs were treated with R848, formulated or unformulated R848-Toco, and the secretion of TNF-α and IL-12 were measured by ELISA as markers of generalized inflammatory response. Canines were chosen as a model over mice because of the greater genetic similarity to humans and more similar immune systems.^46 Peripheral blood from healthy canine donors of 7-10 years age (similar to the age of typical canines with cancer^14) was obtained with appropriate informed consent of the owner. Blood (8 mL per tube) was drawn via sterile venipuncture into a BD Vacutainer cell preparation tube containing sodium heparin (BD Biosciences). PBMCs were isolated within one hour following procurement by density gradient centrifugation according to the manufacturer protocol and resuspended to 3×10^6 cells/mL in sterile RPMI 1640 medium with L-glutamine (Gibco) supplemented with 100 IU/mL penicillin, 100 μg/mL streptomycin (Corning) and 10% (v/v) heat-inactivated Fetalgro (RMBIO). Corning 3917, 96-well tissue culture treated plates were seeded with the PBMC suspension (180 μL/well), 20 μL of the serially diluted R848 samples were added in triplicate and HA-Toco vehicle in duplicate to yield the desired concentrations in a 1% (v/v) DMSO cell suspension. […] Sample cytokine concentrations were determined by interpolation of a four-parameter logistic curve of the recombinant standards using GraphPad Prism 6. […] Cytokine secretion levels were measured by ELISA (Duoset, R&D Systems, Minneapolis, MN, USA) according to the manufacturer protocol.

[1] = In vitro release kinetics (dialysis method); type: physicochemical; settings: PBS media, pH 7.4
Method: Solutions (1 mL) of free R848 in DMSO, R848/HA-Toco in water, R848-Toco in DMSO, and R848-Toco/HA-Toco in water, with a concentration of 1 mg/mL on R848 basis were dialyzed using SnakeSkin® dialysis tubing (MWCO […]) against 30 mL of phosphate buffered saline release medium (PBS, 10 mM sodium phosphate, 137 mM NaCl, pH 7.4) with 0.5% (w/v) polysorbate 80 at 37° C. At predetermined time points, 1 mL aliquots of release medium were sampled and replaced with an equal volume of fresh medium. The samples were kept frozen (−20° C.) until HPLC analysis.
Results: The in vitro release profiles of R848 and R848-Toco from the HA-Toco were studied using a dialysis method. […] The release of parent R848 formulated with HA-Toco was tested in PBS media, with free R848 dissolved in DMSO as a control. Similar release kinetics were observed whether R848 was formulated with HA-Toco or without ([…]), and in both conditions nearly 100% of the agonist was released over 24 h (FIG. 4A).

Structure (SMILES): CCOCc1nc2c(N)nc3ccccc3c2n1CC(C)(C)O [Compound 2, resiquimod, reference compound]
- IL-12 levels (canine PBMCs): highest
- secretion of TNF-α (canine PBMCs): strong secretion
- agonist released over 24 h [1]: ~100%
